Measurements as given in US10753938B2, “Beta-catenin inhibitors in cancer immunotherapy” (The University of Chicago, priority 2015, dated 2020).

B1: recombinant murine CCL4: CCL4 (R&D) added as migration stimulus at 500 ng/ml (protein)
chain: APMGSDPPTSCCFSYTSRQLHRSFVMDYYETSSLCSKPAVVFLTKRGRQICANPSEPWVTEYMSDLELN

How the values were obtained:
[1] = system: skin-derived CD11c^+CD103^+DCs; assay: Transwell migration assay; type: cell-based, mouse
Description: Dendritic cell populations were isolated from lymph nodes and skin of naïve 6 week-old C57BL/6 mice. For this purpose, skin tissue was digested in a similar way as tumor tissue and\ cells from skin and lymph node were stained using the previously described protocol for cell sorting. Subsequently, living, CD45^+, CD11c^+, CD8α^− or CD8α^+ cells were isolated from the lymph node sample as well as living, CD45^+, CD11c^+, CD103^+ from skin samples. Migration assays were performed as described previously with minor adaptations using 5×10^5 cells/well and pre-treatment of DC with pertussis toxin (Sigma) at a final concentration of 20 ng/ml for 1.5 h in indicated (Spranger et al. Journal of immunology 185, 738-747 (2010); herein incorporated by reference in its entirety). As a migration stimulus, CCL4 (R&D) was added to RPMI complete medium at 500 ng/ml or 48 h conditioned media from BP or BPC cell lines were used. At the endpoint, cells from the lower compartment as well as the trans-well were harvested and counted using a standard Neubauer counting chamber. Percentage of migrated cells was calculated as followed: count lower-well/(count upper-well+ count lower-well)*100; with the sum of trans-well and lower well-being >90% of the input cell count.

[2] = system: β-catenin-negative tumors (BP-SIY); assay: Migration of pertussis toxin-pretreated effector 2C T cells into tumor; type: in vivo, mouse; conditions: T cells treated 12 h with PTX before injection
Description: For adoptive T cell transfer experiments, tumor development was induced and transfer of 1×10^6 or 10×10^6 T cells was performed when tumors reached 600-1000 mm^3 (approx. 5-6 weeks after induction). Transferred T cells were isolated from gender-matched 2C donor mice using the Miltenyi CD8^+ enrichment Kit II for untouched CD8^+ T cell isolation. After isolation, cells were activated for three days through plate-bound CD3 (0.2 μg/ml; 145-2C11 clone; Biolegend) and CD28 (0.5 μg/ml; 37.51 clone; BD) antibodies. Following activation, T cells were stained with 1 μm CFSE-solution (eBioscience) for 8 min at 37° C. before intravenous injection. Tumor tissue, tumor-draining LNs, and spleen were harvested 3 days following adoptive transfer of T cells and used for flow cytometric analysis. […] For tumor tissues, the entirety of each sample was acquired and total number of CD3^+CD8^+ T cells and transferred 2C cells was assessed. The percentage 2C cells was calculated as [(100/CD3^+/CD8^+ T cells)*2C] and also the number of 2C cells per gram tumor. […]
To assess if lack of T cell infiltration was due to a defect in effector T cell recruitment, an adoptive T cell transfer approach was used, transferring in vitro-activated effector 2C T cells into tumor bearing BP-SIY and BPC-SIY mice. As a first assessment, only the capacity of the effector T cells to migrate into the tumor within 72 h was analyzed. […]

Molecule | DC migration in response to CCL4 ([1]; pretreatment of DC with pertussis toxin) | migration of effector 2C T cells into tumor [2] | DC migration ([1]; CCL4 as migration stimulus)
pertussis toxin | eliminated | completely block the migration | –
B1 | – | – | migrated in response to CCL4
